We go through six compounds from patent US12486300B2, “Mithramycin oxime derivatives having increased selectivity and anti-cancer activity” (University of Kentucky Research Foundation, priority 2018, dated 2025).

Some results are limits rather than exact numbers.

The subject of data set [1] is RH30 muscle rhabdomyosarcoma. Put plainly: Growth inhibition assay, RH30 cells. It counts as cell-based. Conditions: Table 1D. As to the method:
(§1) Growth inhibition assay to assess cytotoxicity in ETS vs non-ETS expressing cells. Cells were seeded in clear 96-well plates (VWR, Radnor, PA). Seeding densities were optimized for each cell line to support 5 days of linear growth. Following a 24 hours attachment period, cells in duplicate wells were treated with half-log increments of respective compounds (0 nM and 0.3 nM-10 μM). Working stocks were prepared from an initial 10 mM drug stock diluted in either 100% ethanol or dimethyl sulfoxide (DMSO). All wells contained a final concentration of 0.1% (v/v) respective organic solvent. Immediately following treatment, cell viability was measured for vehicle control (Day 0) wells. Cell viability was measured in the remaining wells after 72 hours of incubation with compound or vehicle control (Day 3). For viability measurements, 0.1 mM resazurin (Sigma, St. Louis, MO) was added to wells and following 3 hours of incubation at 37° C., fluorescence readings (EM 560 nm, EX 590 nm) were recorded using a SpectraMax M5 plate reader (Molecular Devices, Sunnyvale, CA).
(§2) Percent viability, relative to the initial cell seeding concentration, was calculated by ((TreatmentDay3−Vehicle ControlDay0)/(Vehicle ControlDay3−Vehicle ControlDay0))×100. Percent cell viability was plotted as a function of compound concentration (Log [M]) and the data were fit using a 3-parameter non-linear model with fixed Hill slope constant and 4-parameter non-linear model with variable Hill slope constant. The model with the best curve fit was used to estimate the GI50 in GraphPad Prism 7.0 software (GraphPad Software, La Jolla, CA). The 3-parameter equation used was Y=Bottom+(Top−Bottom)/(1+10[…]((X−Log[IC50]))). The 4-parameter equation used was Y=Bottom+(Top−Bottom)/(1+10[…]((Log[IC50]−X)*Hillslope)). Top and Bottom are plateaus in the units of the Y-axis (response). IC50 is the response (Y-axis) halfway between Top and Bottom plateaus.
(§3) GI50 values were determined by pooling all available experiments and reported with 95% confidence interval, calculated from GraphPad Prism 7.0 software curve fit. All compounds were tested at least once in multi-well replicates and each experiment included one a control compound (i.e., MTM) to ensure the stable response of the cell lines. The selectivity index was estimated by determining the ratio of GI50 estimates between ETS fusion negative and ETS fusion positive cell lines.

For data set [2], the system named is PC3 Prostate Cancer Cells. Put plainly: Growth inhibition assay, PC3 cells. It counts as cell-based. Conditions: for EC50: Table 1D. Here is the method: as §1, with “3).” for “3). For viability measurements, 0.1 mM resazurin (Sigma, St. Louis, MO) was added to wells and following 3 hours of incubation at 37° C., fluorescence readings (EM 560 nm, EX 590 nm) were recorded using a SpectraMax M5 plate reader (Molecular Devices, Sunnyvale, CA).”
as §2
All compounds were tested at least once in multi-well replicates and each experiment included one a control compound (i.e., MTM) to ensure the stable response of the cell lines. The selectivity index was estimated by determining the ratio of GI50 estimates between ETS fusion negative and ETS fusion positive cell lines.

Data set [3] deals with A-204 (ATTC Cat. No., HTB-82); Rhabdomyosarcoma (embryonal). Put plainly: Growth inhibition assay, A-204 cells. The class given is cell-based. As to conditions: for EC50: Table 1D. As to the method: as §1, §2, §3
Data set [4] deals with TC32 Ewing sarcoma cells, expressing EWS-FLI1. Put plainly: Growth inhibition assay, TC32 cells. The class given is cell-based. As to conditions: for EC50: Table 1D, read-out: TC-32 Mean EC50; for PC:TC32 (cellular selectivity): ratio of GI50 PC3 to TC32.
In data set [5] the test system is G-401 (ATTC Cat. No., CRL-1441); Rhabdoid tumor of the kidney. Put plainly: Growth inhibition assay, G-401 cells. It counts as cell-based. Conditions: for EC50: Table 1D. As to the method: as §1, §2, §3
Another data set concerns U-2 OS bone osteosarcoma. Put plainly: Growth inhibition assay, U-2 OS cells. It counts as cell-based. As to conditions: Table 1D. Here is the method: as §1, §2, §3
Data set [6] can be described thus: Maximum tolerated dose, daily×5 schedule. It counts as in vivo, mice.
Data set [7] is described as follows: IV bolus pharmacokinetics in monkey. The class given is in vivo. Conditions: single monkey, IV bolus 10 mg/kg, 2-compartment modeling. Here is the method: Reference is made to FIGS. 6A and 6B. MTM and exemplary compound MTM(20) were each administered as an IV bolus injection (10 mg/kg) to assess the pharmacokinetics in a single monkey. Estimation of the area under the curve (AUC) was done by 2-compartment modeling. MTM20 has ˜3-fold lower clearance (CL) than mithramycin, which corresponds to an equivalent increase in exposure as measured by the AUC.

Data set [8] has as its system TC-32 cells (EWS-FLI1+) subcutaneously implanted. Put plainly: Efficacy studies in mouse xenografts (TC-32). The class given is in vivo, mice. Conditions: for Significant? survival vs. Vehicle: overall significance level 0.05. Here is the method: Efficacy studies in mouse xenografts. TC-32 cells were suspended in 1:1 (v/v) media: Matrigel on ice and injected subcutaneously into the flank of female immunocompromised athymic nude NU/NU mice at a density of 1.0×10^6 cells per 100 μL. Mice with tumors of at least 75 mm^3 were randomly assigned to treatment groups, n=8-12 mice per group and n=6-10 mice per vehicle control treated group. Tumor volumes were monitored every 2-3 days and mice were euthanized once tumor volumes reached 1500 mm^3. In some experiments, tumors were allowed to grow to 20 mm in one direction prior to animals being removed from the study. Average tumor volume among the replicates were plotted, as well as survival plots, using GraphPad Prism 7.03 software. All animal studies were conducted under approved institutional animal care and use committee (IACUC) protocol.
Reference is made to FIGS. 3A-3G, which include data from an efficacy study involving exemplary compound MTM (20). TC-32 cells (EWS-FLI1+) were subcutaneously implanted in female NU/NU mice. Gray shadding starting at 0 days. indicates dosing window. FIG. 3B includes MTM20 at 21 mg/kg, FIG. 3C includes MTM20 at 15 mg/kg, FIG. 3D includes vehicle (control), FIG. 3E includes MTM (control) at 1 mg/kg, and FIG. 3F includes MTM (contro) at 0.65 mg/kg. Dosing route: IV bolus; Schedule: q2d×8.
Reference is made to FIGS. 4A and 4B, and Table 2, which include data from an efficacy/survival study involving exemplary compound MTM(20). TC-32 cells (EWS-FLI1+) were subcutaneously implanted in female NU/NU mice. FIG. 4A includes survival curves and FIG. 4B includes median survival plots of mice (n=6-7/group).
Further Efficacy Studies. Additional efficacy studies are ongoing with MTM20 at a daily schedule (total of 5 doses).
In comparison, nine of 10 tumor volumes, in the control group have increased by 50% or more and one increased approximately 15% above baseline.
In comparison all tumors in the control group grow by 30% or more relative to baseline.

The target of a further data set is T1, EWS-FLI1 (Homo sapiens, UniProt Q01543+Q01844).
T1 sequence (Q01543 276-373 limits assumed): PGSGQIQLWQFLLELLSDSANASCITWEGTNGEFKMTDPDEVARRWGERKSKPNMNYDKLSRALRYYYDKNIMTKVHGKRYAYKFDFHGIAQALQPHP
Conditions: Grohar et al. 2011; cited from earlier work.

The nature of data set [9]: Hematology profile in monkeys. Conditions: IV bolus 15 mg/kg. Here is the method:
Reference is made to FIGS. 7A-7F, which include include data for a hematology profile in monkeys. MTM and MTM20 were dosed as an IV bolus injection (10 mg/kg and 15 mg/kg) in two monkeys each to assess toxicity. […] Gray areas are reference values.

Usually EC50 stands for the concentration needed to bring the measured effect to its halfway point. As a reminder, the IC50 is the concentration that gives 50% inhibition. With `COC(C(=NOCC(=O)NC(Cc1c[nH]c2ccccc12)C(=O)N1CCC1)C(O)C(C)O)C1Cc2cc3cc(OC4CC(OC5CC(O)C(O)C(C)O5)C(O)C(C)O4)c(C)c(O)c3c(O)c2C(=O)C1OC1CC(OC2CC(OC3CC(C)(O)C(O)C(C)O3)C(O)C(C)O2)C(O)C(C)O1` (stereo not drawn) [MTM104], the EC50 in data set [1] is 295 nM; in data set [2], 671 nM; in data set [3], 883 nM; in data set [4] it was 91.7 nM; in [5] it was 222 nM; in the data set with U-2 OS bone osteosarcoma it was greater than 10000 nM. Also, the IC50 in data set [2] (Table 1C) was found to be 730 nM; in data set [3] (Table 1C), 864 nM; in data set [4] (Table 1C, read-out: IC50 TC-32), 87 nM; in data set [5] (Table 1C), 219 nM. For the same compound, in [4] (Table 1C, cellular selectivity), the “TC32 vs. PC3” value is listed as 8×.
As for `COC(=O)C(Cc1c[nH]c2ccccc12)NC(=O)CON=C(C(O)C(C)O)C(OC)C1Cc2cc3cc(OC4CC(OC5CC(O)C(O)C(C)O5)C(O)C(C)O4)c(C)c(O)c3c(O)c2C(=O)C1OC1CC(OC2CC(OC3CC(C)(O)C(O)C(C)O3)C(O)C(C)O2)C(O)C(C)O1` (stereo not drawn) [MTM (20)], the “full MTD of the daily×5 schedule” value in [6] is 24 mg/kg. Further, the “lower clearance (CL) than mithramycin” value in data set [7] is recorded as roughly 3 fold. Moreover, in [4], the “PC:TC32 (cellular selectivity)” value worked out at 24.5. Besides, in [8] (Experiment 1: 14.7 mg/kg (⅔ of MTD), daily schedule 5 doses, 2 days after end of treatment, 7 animals), the “reduction in tumor volume” value is given as “greater than 50%”. Further, the “tumor volumes decreased, of the original tumor volume” value in data set [8] (Experiment 2: 24 mg/kg (full MTD) daily×5, following the 4th dose) was 10-70%. Moreover, the “Significant? survival” value in data set [8] (MTM20 - 2/3MTD vs. MTM - 2/3MT), in [8] (MTM20 - 2/3MTD vs. MTM - MTD), in data set [8] (MTM20 - MTD vs. MTM20 - 2/3MTD), in data set [8] (MTM20 - MTD vs. MTM - 2/3MTD) and in [8] (MTM20 - MTD vs. MTM - MTD) was “No” each time. Also, the “Significant? survival vs. Vehicle” value in data set [8] (at 2/3MTD) and in [8] (at MTD) was “Yes” each time. Further, the “initial response with new dosing schedules” value in [8] (daily schedule (5 doses) compared to q2Dx8) is “significantly improved”. Also, the “predicted efficacy of standard clinical dosing regimen” value in data set [8] (daily×5×2 weeks (qDx5×2w)) is “notably efficacious and potentially curative”.
`CO[C@H](/C(=N/OCC(=O)N[C@@H](Cc1c[nH]c2ccccc12)c1nc(C)co1)[C@@H](O)[C@@H](C)O)[C@@H]1Cc2cc3cc(O[C@H]4C[C@@H](O[C@H]5C[C@@H](O)[C@H](O)C(C)O5)[C@H](O)C(C)O4)c(C)c(O)c3c(O)c2C(=O)[C@H]1O[C@H]1C[C@@H](O[C@H]2C[C@@H](O[C@H]3C[C@](C)(O)[C@H](O)C(C)O3)[C@H](O)C(C)O2)[C@H](O)C(C)O1` (stereo partly drawn) [MTM (57)]: the EC50 in data set [2] is greater than 1680 nM; in [3] it was 3180 nM; in [4], 74 nM; in [5], 712 nM; in the data set on U-2 OS bone osteosarcoma, greater than 10000 nM. The “PC:TC32 (cellular selectivity)” value in data set [4] is on record as 3.3.
With `CO[C@H](C(=O)[C@@H](O)[C@@H](C)O)[C@@H]1Cc2cc3cc(O[C@H]4C[C@@H](O[C@H]5C[C@@H](O)[C@H](O)[C@@H](C)O5)[C@H](O)[C@@H](C)O4)c(C)c(O)c3c(O)c2C(=O)[C@H]1O[C@H]1C[C@@H](O[C@H]2C[C@@H](O[C@H]3C[C@](C)(O)[C@H](O)[C@@H](C)O3)[C@@H](O)[C@@H](C)O2)[C@H](O)[C@@H](C)O1` [MTM, Mithramycin], the “potency as inhibitor of EWS-FLI1 in Ewing sarcoma cells” value at EWS-FLI1 is on record as “low-nM”. In addition, the platelets counts entry in [9] is recorded as “significant reduction in platelets counts”. Besides, in data set [8] (MTM - MTD vs. MTM - 2/3MTD), the “Significant? survival” value was “No”. The “Significant? survival vs. Vehicle” value in [8] (at 2/3MTD) and in data set [8] (at MTD) was “No” in each case.
Turning to `COC(C(=NOCC(=O)NC(Cc1c[nH]c2ccccc12)C(=O)N1CC(C)(C)C1)C(O)C(C)O)C1Cc2cc3cc(OC4CC(OC5CC(O)C(O)C(C)O5)C(O)C(C)O4)c(C)c(O)c3c(O)c2C(=O)C1OC1CC(OC2CC(OC3CC(C)(O)C(O)C(C)O3)C(O)C(C)O2)C(O)C(C)O1` (stereo not drawn) [MTM105], the EC50 was 45.9 nM in [1]; 177 nM in data set [2]; 29.4 nM in data set [4]; 23.4 nM in data set [5]; greater than 10000 nM in the data set with U-2 OS bone osteosarcoma.
For `CNC(=O)[C@H](Cc1c[nH]c2ccccc12)NC(=O)CO/N=C(\[C@@H](O)[C@@H](C)O)[C@@H](OC)[C@@H]1Cc2cc3cc(O[C@H]4C[C@@H](O[C@H]5C[C@@H](O)[C@H](O)C(C)O5)[C@H](O)C(C)O4)c(C)c(O)c3c(O)c2C(=O)[C@H]1O[C@H]1C[C@@H](O[C@H]2C[C@@H](O[C@H]3C[C@](C)(O)[C@H](O)C(C)O3)[C@H](O)C(C)O2)[C@H](O)C(C)O1` (stereo partly drawn) [MTM (40)], the concentration for a half-maximal effect (EC50) is 1200 nM in data set [1]; 2900 nM in [2]; 256 nM in data set [3]; 414 nM in [4]; 40.2 nM in data set [5]; greater than 10000 nM in the data set on U-2 OS bone osteosarcoma. For the same compound, the “PC:TC32 (cellular selectivity)” value in [4] is reported as 11.8.
